According to PubChem BioAssay (NCI):
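Each compound was tested at five concentrations against cells in 96-well plates for 48 hours. GI50 marks 50% less growth. The concentration for full growth arrest is given as TGI.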

Tests used:
Assay in all cases: NCI tumour cell line growth inhibition, 48 h
K-562 leukemia = test system: K-562 leukemia
SF-539 CNS = test system: SF-539 CNS
SK-OV-3 ovarian = test system: SK-OV-3 ovarian
MALME-3M melanoma = test system: MALME-3M melanoma
T-47D breast = test system: T-47D breast
NCI/ADR-RES ovarian = test system: NCI/ADR-RES ovarian
HL-60(TB) leukemia = test system: HL-60(TB) leukemia
M14 melanoma = test system: M14 melanoma
U251 CNS = test system: U251 CNS
NCI-H23 lung = test system: NCI-H23 lung
RXF 393 renal = test system: RXF 393 renal
SF-268 CNS = test system: SF-268 CNS
MDA-MB-231 breast = test system: MDA-MB-231 breast
DU-145 prostate = test system: DU-145 prostate
HCT-116 colon = test system: HCT-116 colon
BT-549 breast = test system: BT-549 breast
PC-3 prostate = test system: PC-3 prostate
SW-620 colon = test system: SW-620 colon
HOP-92 NSCLC = test system: HOP-92 NSCLC
A549 NSCLC = test system: A549 NSCLC
HCT-15 colon = test system: HCT-15 colon
786-0 renal = test system: 786-0 renal
A498 renal = test system: A498 renal
HS 578T breast = test system: HS 578T breast
SK-MEL-2 melanoma = test system: SK-MEL-2 melanoma
UACC-62 melanoma = test system: UACC-62 melanoma
SK-MEL-28 melanoma = test system: SK-MEL-28 melanoma
NCI-H460 lung = test system: NCI-H460 lung
MDA-MB-435 = test system: MDA-MB-435
SNB-19 CNS = test system: SNB-19 CNS
NCI-H522 lung = test system: NCI-H522 lung
UO-31 renal = test system: UO-31 renal
HCC-2998 colon = test system: HCC-2998 colon
CCRF-CEM leukemia = test system: CCRF-CEM leukemia
KM12 colon = test system: KM12 colon
NCI-H226 lung = test system: NCI-H226 lung
SNB-75 CNS = test system: SNB-75 CNS
MOLT-4 leukemia = test system: MOLT-4 leukemia
TK-10 renal = test system: TK-10 renal
OVCAR-3 ovarian = test system: OVCAR-3 ovarian
LOX IMVI melanoma = test system: LOX IMVI melanoma
RPMI-8226 leukemia = test system: RPMI-8226 leukemia
SN12C renal = test system: SN12C renal
SF-295 CNS = test system: SF-295 CNS
EKVX NSCLC = test system: EKVX NSCLC
COLO 205 colon = test system: COLO 205 colon
ACHN renal = test system: ACHN renal
OVCAR-4 ovarian = test system: OVCAR-4 ovarian
HOP-62 NSCLC = test system: HOP-62 NSCLC
OVCAR-8 ovarian = test system: OVCAR-8 ovarian
IGROV1 ovarian = test system: IGROV1 ovarian
HT29 colon = test system: HT29 colon
UACC-257 melanoma = test system: UACC-257 melanoma
SK-MEL-5 melanoma = test system: SK-MEL-5 melanoma
SR leukemia = test system: SR leukemia
OVCAR-5 ovarian = test system: OVCAR-5 ovarian
MCF7 breast = test system: MCF7 breast

Compound `N#CC1=C(N)Oc2c(sc3c(F)cccc23)C1c1ccc(Cl)cc1` (centres undefined) has a GI50 (K-562 leukemia) of 1.28 µM, a TGI (K-562 leukemia) of 16.3 µM and a GI50 (SF-539 CNS) of 2.05 µM. It also gave a TGI (SF-539 CNS) of 5.59 µM, a GI50 (SK-OV-3 ovarian) of 5.16 µM and a TGI (SK-OV-3 ovarian) of 20 µM. For the same compound, the GI50 (MALME-3M melanoma) was 6.85 µM, the TGI (MALME-3M melanoma) was 26.3 µM and the GI50 (T-47D breast) was 3.43 µM. It also gave a TGI (T-47D breast) of 25.3 µM, a GI50 (NCI/ADR-RES ovarian) of 2.09 µM and a TGI (NCI/ADR-RES ovarian) of 6.68 µM. For the same compound, the GI50 (HL-60(TB) leukemia) was 2.69 µM, the TGI (HL-60(TB) leukemia) was 8.3 µM and the GI50 (M14 melanoma) was 2.19 µM. It also gave a TGI (M14 melanoma) of 6.57 µM, a GI50 (U251 CNS) of 3.13 µM and a TGI (U251 CNS) of 11.6 µM. It also gave a GI50 (NCI-H23 lung) of 3.37 µM, a TGI (NCI-H23 lung) of 16.2 µM and a GI50 (RXF 393 renal) of 1.92 µM. For the same compound, the TGI (RXF 393 renal) was 6 µM, the GI50 (SF-268 CNS) was 4.32 µM and the TGI (SF-268 CNS) was 31.2 µM. The GI50 (MDA-MB-231 breast) was 3.46 µM, the TGI (MDA-MB-231 breast) was 16.2 µM and the GI50 (DU-145 prostate) was 3.49 µM. The TGI (DU-145 prostate) was 12.9 µM, the GI50 (HCT-116 colon) was 3.7 µM and the TGI (HCT-116 colon) was 13.9 µM. The GI50 (BT-549 breast) was 3.6 µM, the TGI (BT-549 breast) was 22.5 µM and the GI50 (PC-3 prostate) was 2.72 µM. The TGI (PC-3 prostate) was 12.9 µM, the GI50 (SW-620 colon) was 3.47 µM and the TGI (SW-620 colon) was 16.3 µM. It also gave a GI50 (HOP-92 NSCLC) of 3.71 µM, a TGI (HOP-92 NSCLC) of 19.2 µM and a GI50 (A549 NSCLC) of 4.24 µM. For the same compound, the TGI (A549 NSCLC) was 17.5 µM, the GI50 (HCT-15 colon) was 2.75 µM and the TGI (HCT-15 colon) was 13.1 µM. The GI50 (786-0 renal) was 3.15 µM, the TGI (786-0 renal) was 11.1 µM and the GI50 (A498 renal) was 2.57 µM. For the same compound, the TGI (A498 renal) was 11.2 µM, the GI50 (HS 578T breast) was 2.63 µM and the TGI (HS 578T breast) was 15.5 µM. It also gave a GI50 (SK-MEL-2 melanoma) of 3.49 µM, a TGI (SK-MEL-2 melanoma) of 15.5 µM and a GI50 (UACC-62 melanoma) of 3.26 µM. The TGI (UACC-62 melanoma) was 17.5 µM, the GI50 (SK-MEL-28 melanoma) was 5.86 µM and the TGI (SK-MEL-28 melanoma) was 28.2 µM. The GI50 (NCI-H460 lung) was 3.38 µM, the TGI (NCI-H460 lung) was 11.8 µM and the GI50 (MDA-MB-435) was 0.616 µM. It also gave a TGI (MDA-MB-435) of 2.7 µM, a GI50 (SNB-19 CNS) of 3.32 µM and a TGI (SNB-19 CNS) of 16.3 µM. For the same compound, the GI50 (NCI-H522 lung) was 1.93 µM, the TGI (NCI-H522 lung) was 11.7 µM and the GI50 (UO-31 renal) was 2.49 µM. The TGI (UO-31 renal) was 11.5 µM, the GI50 (HCC-2998 colon) was 7.25 µM and the TGI (HCC-2998 colon) was 22.6 µM. It also gave a GI50 (CCRF-CEM leukemia) of 2.99 µM, a TGI (CCRF-CEM leukemia) of 12.1 µM and a GI50 (KM12 colon) of 2.75 µM. The TGI (KM12 colon) was 18.9 µM, the GI50 (NCI-H226 lung) was 12.7 µM and the TGI (NCI-H226 lung) was 34.8 µM. For the same compound, the GI50 (SNB-75 CNS) was 2.27 µM, the TGI (SNB-75 CNS) was 10 µM and the GI50 (MOLT-4 leukemia) was 2.93 µM. It also gave a TGI (MOLT-4 leukemia) of 10.5 µM, a GI50 (TK-10 renal) of 8.38 µM and a TGI (TK-10 renal) of 24.3 µM. For the same compound, the GI50 (OVCAR-3 ovarian) was 2.6 µM, the TGI (OVCAR-3 ovarian) was 7.44 µM and the GI50 (LOX IMVI melanoma) was 3.06 µM. For the same compound, the TGI (LOX IMVI melanoma) was 11.8 µM, the GI50 (RPMI-8226 leukemia) was 2.91 µM and the TGI (RPMI-8226 leukemia) was 12.8 µM. For the same compound, the GI50 (SN12C renal) was 4.33 µM, the TGI (SN12C renal) was 16.2 µM and the GI50 (SF-295 CNS) was 2.74 µM. The TGI (SF-295 CNS) was 9.5 µM, the GI50 (EKVX NSCLC) was 4 µM and the TGI (EKVX NSCLC) was 21.7 µM. It also gave a GI50 (COLO 205 colon) of 2.31 µM, a TGI (COLO 205 colon) of 6.15 µM and a GI50 (ACHN renal) of 4.62 µM. It also gave a TGI (ACHN renal) of 19.3 µM, a GI50 (OVCAR-4 ovarian) of 4.21 µM and a TGI (OVCAR-4 ovarian) of 19.6 µM. For the same compound, the GI50 (HOP-62 NSCLC) was 2.99 µM, the TGI (HOP-62 NSCLC) was 15.7 µM and the GI50 (OVCAR-8 ovarian) was 4.4 µM. The TGI (OVCAR-8 ovarian) was 18.7 µM, the GI50 (IGROV1 ovarian) was 3.43 µM and the TGI (IGROV1 ovarian) was 17.1 µM. The GI50 (HT29 colon) was 3.17 µM, the TGI (HT29 colon) was 11.5 µM and the GI50 (UACC-257 melanoma) was 11.7 µM. For the same compound, the TGI (UACC-257 melanoma) was greater than 100 µM, the GI50 (SK-MEL-5 melanoma) was 3.68 µM and the TGI (SK-MEL-5 melanoma) was 15.1 µM. For the same compound, the GI50 (SR leukemia) was 1.6 µM, the TGI (SR leukemia) was 13.4 µM and the GI50 (OVCAR-5 ovarian) was 10.2 µM. The TGI (OVCAR-5 ovarian) was 34 µM, the GI50 (MCF7 breast) was 1.85 µM and the TGI (MCF7 breast) was 12 µM.
